Patent US20070184490A1, “Neuronal nicotinic receptor ligands and their use” (priority 2006, published 2007)

Tests used:
[1] = test system: adults with ADHD; assay: pilot study: computerized cognitive assessment battery; format: in vivo, human
Protocol: Raters for the CAARS were trained and certified prior to the start of the study. Investigator-administered CAARS, CGI-ADHD-S, Hamilton Anxiety Scale (HAM-A) (Hamilton 1959), and Hamilton Depression Scale (HAM-D) (Hamilton 1960) were administered to subjects at baseline and at the completion of each treatment period (Days 14, 28, 42, and 56). CMRS, HAM-A, and HAM-D ratings were based on the previous seven days. After being trained, subjects completed a computerized cognitive assessment battery (Simpson et al 1989), which was amended to include the Conner's Continuous Performance Test (Conners 1995) and the Stroop Color Word Test (Jensen and Rohwer 1966), at baseline and at the completion of each treatment period. Attentional tasks (simple and choice reaction time, digit vigilance), selective attention (Conner's CPT), working memory tasks (numeric and spatial working memory, rapid visual information processing), episodic secondary memory (immediate and delayed word recall, word and picture recognition), motor control tasks (tracking), and executive function (the Stroop effect) were among the items assessed.
The primary efficacy endpoint was the CAARS total ADHD symptom score (sum of Inattention and Hyperactivity/Impulsivity scores) obtained on the last day of each treatment period. Treatment differences were assessed using an analysis of variance (ANOV A) model with fixed terms fitted for treatment, period, and sequence and a random effect for subjects-within-sequence. […] There were no corrections for multiple comparisons in this proof-of-concept study. Statistical tests of efficacy were one-sided; p-values ≦0.050 were considered statistically significant, and those between […] indicated a statistical trend.

[2] = molecular target: human α4 β2 NNRs (Homo sapiens, UniProt P17787+P43681); assay: binding to human α4β2 NNRs in vitro
human α4 β2 NNRs, sequence (P43681 29-627 limits assumed): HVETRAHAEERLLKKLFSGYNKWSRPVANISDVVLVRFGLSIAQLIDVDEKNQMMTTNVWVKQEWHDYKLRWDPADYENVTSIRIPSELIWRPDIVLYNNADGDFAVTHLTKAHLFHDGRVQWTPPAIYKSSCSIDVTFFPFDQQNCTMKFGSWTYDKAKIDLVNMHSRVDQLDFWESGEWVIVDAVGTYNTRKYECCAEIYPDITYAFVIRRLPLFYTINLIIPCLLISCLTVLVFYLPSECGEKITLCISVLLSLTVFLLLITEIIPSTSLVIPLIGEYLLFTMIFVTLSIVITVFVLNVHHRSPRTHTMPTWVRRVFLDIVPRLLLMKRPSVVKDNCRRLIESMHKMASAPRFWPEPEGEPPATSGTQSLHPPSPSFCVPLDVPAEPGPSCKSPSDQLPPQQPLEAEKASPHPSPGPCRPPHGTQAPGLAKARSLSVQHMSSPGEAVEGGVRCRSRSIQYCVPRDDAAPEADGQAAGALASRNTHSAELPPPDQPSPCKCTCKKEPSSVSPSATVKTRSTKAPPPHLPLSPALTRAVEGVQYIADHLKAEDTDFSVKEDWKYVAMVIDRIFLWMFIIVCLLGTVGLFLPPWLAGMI
human α4 β2 NNRs, sequence (P17787 26-502): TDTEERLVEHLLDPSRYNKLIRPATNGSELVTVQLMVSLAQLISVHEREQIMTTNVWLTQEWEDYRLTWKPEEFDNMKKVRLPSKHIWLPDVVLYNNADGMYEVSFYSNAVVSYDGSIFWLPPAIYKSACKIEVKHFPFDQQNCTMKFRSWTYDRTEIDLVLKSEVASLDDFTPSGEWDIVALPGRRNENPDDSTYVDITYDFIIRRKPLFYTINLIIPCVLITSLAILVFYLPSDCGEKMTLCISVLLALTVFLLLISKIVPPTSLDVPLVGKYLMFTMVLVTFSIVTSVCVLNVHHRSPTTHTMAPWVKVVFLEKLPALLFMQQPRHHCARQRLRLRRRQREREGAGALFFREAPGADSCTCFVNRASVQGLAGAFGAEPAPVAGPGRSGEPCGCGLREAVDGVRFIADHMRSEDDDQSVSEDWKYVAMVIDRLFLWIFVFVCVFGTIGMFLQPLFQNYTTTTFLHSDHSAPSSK

[3] = animal models; U-shaped dose-response; cited from earlier work
[4] = pilot study: tolerability and safety; format: in vivo, human; settings: for Adverse event Headache, subjects reporting / Adverse event Increased appetite, subjects reporting / Adverse event Nervousness, subjects reporting / Adverse event Pain, subjects reporting / Adverse event Somnolence, subjects reporting: N=11
Protocol: Safety was evaluated by spontaneous report of adverse events; in addition, laboratory data (hematology, chemistry, urinalysis), vital signs, and electrocardiograms ([…]) were completed at baseline and at the end of each treatment period.

[5] = Phase 1 multiple dose human study; format: in vivo; settings: 5 to 40 mg twice daily

binding to human α4 β2 NNRs [2]: very selectively binds
Compound: Cc1ncccc1OC[C@@H]1CCCN1 [ABT-089, 2-methyl-3-(2-(S)-pyrrolidinylmethoxy)pyridine]
Continuous Performance Test Attentiveness ([1]; 2 mg): 0.56±0.27
Continuous Performance Test Attentiveness ([1]; 4 mg): 0.68±0.27
Continuous Performance Test Attentiveness ([1]; 20 mg): 0.69±0.27
information processing speed ([1]; 20 mg): 516.3±12.7
Continuous Performance Test number of commission errors ([1]; all ABT-089 dose levels): statistically significant improvement
measures of attention (reaction time, vigilance), episodic secondary memory, executive function (Stroop Effect) vs placebo ([1]; in vivo): no meaningful differences
plasma levels associated with efficacy [3]: 5 to 15 ng/mL
Adverse event Headache, subjects reporting ([4]; 2 mg bid): 3
Adverse event Increased appetite, subjects reporting ([4]; 2 mg bid): 0
Adverse event Nervousness, subjects reporting ([4]; 2 mg bid): 1
Adverse event Pain, subjects reporting ([4]; 2 mg bid): 0
Adverse event Somnolence, subjects reporting ([4]; 2 mg bid): 0
serious adverse events ([4]; 2 mg to 20 mg twice daily): no serious adverse events
tolerability ([4]; 2 mg to 20 mg twice daily, 11 adult ADHD subjects): well tolerated
Adverse event Headache, subjects reporting ([4]; 4 mg bid): 0
Adverse event Increased appetite, subjects reporting ([4]; 4 mg bid): 0
Adverse event Nervousness, subjects reporting ([4]; 4 mg bid): 0
Adverse event Pain, subjects reporting ([4]; 4 mg bid): 0
Adverse event Somnolence, subjects reporting ([4]; 4 mg bid): 0
nausea, subjects ([4]; 4 mg dose): one subject
Adverse event Headache, subjects reporting ([4]; 20 mg bid): 2
Adverse event Nervousness, subjects reporting ([4]; 20 mg bid): 1
Adverse event Pain, subjects reporting ([4]; 20 mg bid): 2
Adverse event Somnolence, subjects reporting ([4]; 20 mg bid): 2
laboratory findings, vital signs or ECG ([4]; during the study): no clinically meaningful findings or dose-related trends
tolerability [5]: well tolerated
Simple Reaction Time, a measure of attention ([5]; compared to placebo): significantly improved
